# According to patent publication US10988524B2, “Modified relaxin B chain peptides and their therapeutic use” (priority 2018, dated 2021):
# Non-standard residues stand in square brackets, D forms with d. Residues, ends and D or L forms follow the SMILES beside them. 1Nal = N[C@@H](Cc1cccc2ccccc12)C(=O)O; αMeS = C[C@](N)(CO)C(=O)O; Nle = CCCC[C@H](N)C(=O)O; Aib = CC(C)(N)C(=O)O
# Target: T1, RXFP1 (Homo sapiens, UniProt Q9HBX9)
# T1 sequence (Q9HBX9 1-757): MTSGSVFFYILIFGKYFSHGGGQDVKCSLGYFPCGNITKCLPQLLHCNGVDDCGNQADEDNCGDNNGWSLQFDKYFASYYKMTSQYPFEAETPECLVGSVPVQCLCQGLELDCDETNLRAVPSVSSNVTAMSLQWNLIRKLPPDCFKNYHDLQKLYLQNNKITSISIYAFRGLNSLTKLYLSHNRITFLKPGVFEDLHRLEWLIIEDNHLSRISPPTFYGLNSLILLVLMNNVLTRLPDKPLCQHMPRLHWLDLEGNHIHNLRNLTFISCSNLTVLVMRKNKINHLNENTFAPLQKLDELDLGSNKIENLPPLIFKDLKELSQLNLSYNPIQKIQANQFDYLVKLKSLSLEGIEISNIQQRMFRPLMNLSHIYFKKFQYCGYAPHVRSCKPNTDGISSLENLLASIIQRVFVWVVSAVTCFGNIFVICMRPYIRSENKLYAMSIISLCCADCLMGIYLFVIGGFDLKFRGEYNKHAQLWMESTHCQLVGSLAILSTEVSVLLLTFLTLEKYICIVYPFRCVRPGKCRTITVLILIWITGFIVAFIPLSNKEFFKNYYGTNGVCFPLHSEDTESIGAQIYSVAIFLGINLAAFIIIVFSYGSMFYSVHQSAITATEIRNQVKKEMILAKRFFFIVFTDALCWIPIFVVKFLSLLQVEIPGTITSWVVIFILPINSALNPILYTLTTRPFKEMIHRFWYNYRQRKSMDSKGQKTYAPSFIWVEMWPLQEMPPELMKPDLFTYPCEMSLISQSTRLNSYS
# Assay: OVCAR5 cAMP assay (RXFP1 agonist activity, HTRF)
# Conditions: for Emax: OVCAR-5, read-out: cAMP assay in OVCAR 5 cells Emax, maximal intracellular cAMP relative to H2-relaxin in the same test occasion; for EC50: cAMP assay in OVCAR 5 cells EC50 (nM), OVCAR5 cells expressing endogenous RXFP1, cAMP by HTRF, 30 min at 37° C., 1 mM IBMX
Compound,Emax [%],EC50 [nM]
CCCC[C@H](NC(=O)CNC(=O)[C@H](CCC(=O)O)NC(=O)C(C)(C)NC(=O)C(C)(C)NC(=O)[C@@H](NC(=O)[C@H](CCC(N)=O)NC(=O)[C@H](C)NC(=O)[C@H](CCCNC(=N)N)NC(=O)[C@@H](NC(=O)[C@H](CCCCN)NC(=O)[C@H](CCC(=O)O)NC(=O)[C@H](CCCNC(=N)N)NC(=O)CNC(=O)[C@H](CCC(=O)O)NC(=O)[C@H](CC(C)C)NC(C)=O)C(C)C)[C@@H](C)CC)C(=O)N[C@@H](CO)C(=O)N[C@@H](CCCCN)C(=O)N[C@@H](Cc1cccc2ccccc12)C(=O)N[C@@H](CO)C(=O)N[C@@H](CCCCN)C(=O)N[C@@H](CCCNC(=N)N)C(N)=O [compound 36] (Ac-LEGREKVRAQI[Aib][Aib]EG[Nle]SK[1Nal]SKR-NH2),103,–
CCCC[C@H](NC(=O)CNC(=O)[C@H](CCC(=O)O)NC(=O)C(C)(C)NC(=O)C(C)(C)NC(=O)[C@@H](NC(=O)[C@H](CCC(N)=O)NC(=O)[C@H](C)NC(=O)[C@H](CCCNC(=N)N)NC(=O)[C@@H](NC(=O)[C@H](CCCCN)NC(=O)[C@H](CCC(=O)O)NC(=O)[C@H](CCCNC(=N)N)NC(=O)CNC(=O)[C@H](CCC(=O)O)NC(=O)[C@H](CC(C)C)NC(C)=O)C(C)C)[C@@H](C)CC)C(=O)N[C@@H](CO)C(=O)N[C@H](C(=O)N[C@@H](Cc1cccc2ccccc12)C(=O)N[C@@H](CO)C(=O)N[C@@H](CCCCN)C(=O)N[C@@H](CCCNC(=N)N)C(N)=O)[C@@H](C)O [compound 37] (Ac-LEGREKVRAQI[Aib][Aib]EG[Nle]ST[1Nal]SKR-NH2),104,–
CC[C@H](C)[C@H](NC(=O)[C@H](CCC(N)=O)NC(=O)[C@H](C)NC(=O)[C@H](CCCNC(=N)N)NC(=O)[C@@H](NC(=O)[C@H](CCCCN)NC(=O)[C@H](CCC(=O)O)NC(=O)[C@H](CCCNC(=N)N)NC(=O)CNC(=O)[C@H](CCC(=O)O)NC(=O)[C@H](CC(C)C)NC(C)=O)C(C)C)C(=O)NC(C)(C)C(=O)NC(C)(C)C(=O)N[C@@H](CCC(=O)O)C(=O)NCC(=O)N[C@@H](CCSC)C(=O)N[C@@H](CO)C(=O)N[C@@](C)(CO)C(=O)N[C@@H](Cc1c[nH]c2ccccc12)C(=O)N[C@@H](CO)C(=O)N[C@@H](CCCCN)C(=O)N[C@@H](CCCNC(=N)N)C(N)=O [compound 39] (Ac-LEGREKVRAQI[Aib][Aib]EGMS[αMeS]WSKR-NH2),99,9.5
CC[C@H](C)[C@H](NC(=O)[C@H](CCC(N)=O)NC(=O)[C@H](C)NC(=O)[C@H](CCCNC(=N)N)NC(=O)[C@@H](NC(=O)[C@H](CCCCN)NC(=O)[C@H](CCC(=O)O)NC(=O)[C@H](CCCNC(=N)N)NC(=O)CNC(=O)[C@H](CCC(=O)O)NC(=O)[C@H](CC(C)C)NC(C)=O)C(C)C)C(=O)NC(C)(C)C(=O)NC(C)(C)C(=O)N[C@@H](CCC(=O)O)C(=O)NCC(=O)N[C@@H](CCSC)C(=O)N[C@@H](CO)C(=O)N[C@H](C(=O)N[C@@H](Cc1c[nH]c2ccccc12)C(=O)N[C@@H](CO)C(=O)N[C@@H](CCCCN)C(=O)N[C@@H](CCCNC(=N)N)C(N)=O)[C@@H](C)O [compound 40] (Ac-LEGREKVRAQI[Aib][Aib]EGMSTWSKR-NH2),103,–
CC[C@H](C)[C@H](NC(=O)[C@H](CCC(N)=O)NC(=O)[C@H](C)NC(=O)[C@H](CCCNC(=N)N)NC(=O)[C@@H](NC(=O)[C@H](CCCCN)NC(=O)[C@H](CCC(=O)O)NC(=O)[C@H](CCCNC(=N)N)NC(=O)CNC(=O)[C@H](CCC(=O)O)NC(=O)[C@H](CC(C)C)NC(C)=O)C(C)C)C(=O)NC(C)(C)C(=O)NC(C)(C)C(=O)N[C@@H](CCC(=O)O)C(=O)NCC(=O)N[C@@H](CCSC)C(=O)N[C@@H](CO)C(=O)N[C@H](C(=O)N[C@@H](Cc1c[nH]c2ccccc12)C(=O)N[C@@H](CO)C(=O)NC(C)(C)C(=O)N[C@@H](CCCNC(=N)N)C(N)=O)[C@@H](C)O [compound 41] (Ac-LEGREKVRAQI[Aib][Aib]EGMSTWS[Aib]R-NH2),106,–
CC[C@H](C)[C@H](NC(=O)[C@H](CCC(N)=O)NC(=O)C(C)(C)NC(=O)[C@H](CCCNC(=N)N)NC(=O)[C@@H](NC(=O)[C@H](CCCCN)NC(=O)[C@H](CCC(=O)O)NC(=O)[C@H](CCCNC(=N)N)NC(=O)CNC(=O)[C@H](CCC(=O)O)NC(=O)[C@H](CC(C)C)NC(C)=O)C(C)C)C(=O)NC(C)(C)C(=O)NC(C)(C)C(=O)N[C@@H](CCC(=O)O)C(=O)NCC(=O)N[C@@H](CCSC)C(=O)N[C@@H](CO)C(=O)N[C@H](C(=O)N[C@@H](Cc1c[nH]c2ccccc12)C(=O)N[C@@H](CO)C(=O)NC(C)(C)C(=O)N[C@@H](CCCNC(=N)N)C(N)=O)[C@@H](C)O [compound 42] (Ac-LEGREKVR[Aib]QI[Aib][Aib]EGMSTWS[Aib]R-NH2),104,251
CC[C@H](C)[C@H](NC(=O)C(C)(C)NC(=O)[C@H](C)NC(=O)[C@H](CCCNC(=N)N)NC(=O)[C@@H](NC(=O)[C@H](CCCCN)NC(=O)[C@H](CCC(=O)O)NC(=O)[C@H](CCCNC(=N)N)NC(=O)CNC(=O)[C@H](CCC(=O)O)NC(=O)[C@H](CC(C)C)NC(C)=O)C(C)C)C(=O)NC(C)(C)C(=O)NC(C)(C)C(=O)N[C@@H](CCC(=O)O)C(=O)NCC(=O)N[C@@H](CCSC)C(=O)N[C@@H](CO)C(=O)N[C@H](C(=O)N[C@@H](Cc1c[nH]c2ccccc12)C(=O)N[C@@H](CO)C(=O)NC(C)(C)C(=O)N[C@@H](CCCNC(=N)N)C(N)=O)[C@@H](C)O [compound 43] (Ac-LEGREKVRA[Aib]I[Aib][Aib]EGMSTWS[Aib]R-NH2),104,–

# Now from value to compound:
Emax [%],EC50 [nM],Compound
98,–,CC[C@H](C)[C@H](NC(=O)[C@H](CCC(N)=O)NC(=O)[C@H](C)NC(=O)[C@H](CCCNC(=N)N)NC(=O)[C@@H](NC(=O)[C@H](CCCCN)NC(=O)[C@H](CCC(=O)O)NC(=O)[C@H](CCCNC(=N)N)NC(=O)CNC(=O)[C@H](CCC(=O)O)NC(=O)[C@H](CC(C)C)NC(C)=O)C(C)C)C(=O)NC(C)(C)C(=O)NC(C)(C)C(=O)N[C@@H](CCC(=O)O)C(=O)NCC(=O)N[C@@H](CCC(N)=O)C(=O)N[C@@H](CO)C(=O)N[C@H](C(=O)N[C@@H](Cc1c[nH]c2ccccc12)C(=O)N[C@@H](CO)C(=O)NC(C)(C)C(=O)N[C@@H](CCCNC(=N)N)C(=O)N[C@@H](CCCCN)C(=O)N[C@@H](CCCCN)C(N)=O)[C@@H](C)O [compound 35] (Ac-LEGREKVRAQI[Aib][Aib]EGQSTWS[Aib]RKK-NH2)
102,–,CC[C@H](C)[C@H](NC(=O)[C@H](CCC(N)=O)NC(=O)[C@H](C)NC(=O)[C@H](CCCNC(=N)N)NC(=O)[C@@H](NC(=O)[C@H](CCCCN)NC(=O)[C@H](CCC(=O)O)NC(=O)[C@H](CCCNC(=N)N)NC(=O)CNC(=O)[C@H](CCC(=O)O)NC(=O)[C@H](CC(C)C)NC(C)=O)C(C)C)C(=O)NC(C)(C)C(=O)NC(C)(C)C(=O)N[C@@H](CCC(=O)O)C(=O)NCC(=O)N[C@@H](CCSC)C(=O)N[C@@H](CO)C(=O)N[C@@H](CCCCN)C(=O)N[C@@H](Cc1c[nH]c2ccccc12)C(=O)N[C@@H](CO)C(=O)N[C@@H](CCCCN)C(=O)N[C@@H](CCCNC(=N)N)C(N)=O [compound 38] (Ac-LEGREKVRAQI[Aib][Aib]EGMSKWSKR-NH2)
101,–,CCCC[C@H](NC(=O)CNC(=O)[C@H](CCC(=O)O)NC(=O)C(C)(C)NC(=O)C(C)(C)NC(=O)[C@@H](NC(=O)[C@H](CCC(N)=O)NC(=O)[C@H](C)NC(=O)[C@H](CCCNC(=N)N)NC(=O)[C@@H](NC(=O)[C@H](CCCCN)NC(=O)[C@H](CCC(=O)O)NC(=O)[C@H](CCCNC(=N)N)NC(=O)CNC(=O)[C@H](CCC(=O)O)NC(=O)[C@H](CC(C)C)NC(C)=O)C(C)C)[C@@H](C)CC)C(=O)N[C@@H](CO)C(=O)N[C@H](C(=O)N[C@@H](Cc1c[nH]c2ccccc12)C(=O)N[C@@H](CO)C(=O)NC(C)(C)C(=O)N[C@@H](CCCNC(=N)N)C(=O)N[C@@H](CCCCN)C(N)=O)[C@@H](C)O [compound 44] (Ac-LEGREKVRAQI[Aib][Aib]EG[Nle]STWS[Aib]RK-NH2)
98,–,CC[C@H](C)[C@H](NC(=O)[C@H](CCC(N)=O)NC(=O)[C@H](C)NC(=O)[C@H](CCCNC(=N)N)NC(=O)[C@@H](NC(=O)[C@H](CCCCN)NC(=O)[C@H](CCC(=O)O)NC(=O)[C@H](CCCNC(=N)N)NC(=O)CNC(=O)[C@H](CCC(=O)O)NC(=O)[C@H](CC(C)C)NC(C)=O)C(C)C)C(=O)NC(C)(C)C(=O)NC(C)(C)C(=O)N[C@@H](CCC(=O)O)C(=O)NCC(=O)N[C@@H](CCSC)C(=O)N[C@@H](CO)C(=O)N[C@H](C(=O)N[C@@H](Cc1c[nH]c2ccccc12)C(=O)N[C@@H](CO)C(=O)NC(C)(C)C(=O)N[C@@H](CCCNC(=N)N)C(=O)N[C@@H](CCCCN)C(N)=O)[C@@H](C)O [compound 45] (Ac-LEGREKVRAQI[Aib][Aib]EGMSTWS[Aib]RK-NH2)
